This assay concerns the target T1, recombinant human plasminogen activator inhibitor-1 (PAI-1) (Homo sapiens, UniProt P05121).
T1 construct: purchased Molecular Innovations, Royal Oak, Mich
In words: Primary Screen for the PAI-1 Inhibition (residual tPA activity, chromogenic substrate Spectrozyme-tPA). In kind it is biochemical. The following applies: 140 nM PAI-1, 70 nM tPA, pH 6.6. On the procedure:
Test compounds are dissolved in DMSO at a final concentration of 10 mM, then diluted 101× in physiologic buffer. The inhibitory assay is initiated by the addition of the test compound (1-100 μM final concentration, maximum DMSO concentration of 0.2%) in a pH 6.6 buffer containing 140 nM recombinant human plasminogen activator inhibitor-1 (PAI-1; Molecular Innovations, Royal Oak, Mich.). Following a 1 hour incubation at room temperature, 70 nM of recombinant human tissue plasminogen activator (tPA) is added, and the combination of the test compound, PAI-1 and tPA is incubated for an additional 30 minutes. Following the second incubation, Spectrozyme-tPA (American Diagnostica, Greenwich, Conn.), a chromogenic substrate for tPA, is added and absorbance read at 405 nm at 0 and 60 minutes. Relative PAI-1 inhibition is equal to the residual tPA activity in the presence of the test compound and PAI-1. Control treatments include the complete inhibition of tPA by PAI-1 at the molar ratio employed (2:1), and the absence of any effect of the test compound on tPA alone.

T1 sequence (P05121 24-402): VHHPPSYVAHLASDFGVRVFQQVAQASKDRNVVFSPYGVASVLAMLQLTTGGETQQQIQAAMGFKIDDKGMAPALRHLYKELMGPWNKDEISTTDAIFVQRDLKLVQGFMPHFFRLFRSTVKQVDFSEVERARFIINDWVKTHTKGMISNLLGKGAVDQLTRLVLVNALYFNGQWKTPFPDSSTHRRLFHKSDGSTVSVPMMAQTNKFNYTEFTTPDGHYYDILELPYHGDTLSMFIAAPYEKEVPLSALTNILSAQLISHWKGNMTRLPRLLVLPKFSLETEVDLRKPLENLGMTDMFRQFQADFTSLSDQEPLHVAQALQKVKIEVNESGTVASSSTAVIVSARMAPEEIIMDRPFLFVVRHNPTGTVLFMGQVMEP

For `O=C(O)COc1ccc(-c2ccc(CNC(=O)c3cnn(-c4ccccc4)c3C(F)(F)F)cc2)cc1` [Compound 1, ({4′-[({[1-phenyl-5-(trifluoromethyl)-1H-pyrazol-4-yl]carbonyl}amino)methyl][1,1′-biphenyl]-4-yl}oxy)acetic acid], the inhibition (usually the relative decrease from the control value, in per cent) at 25 µM (25 μM test compound) is 1%. The inhibition at 100 µM (100 μM test compound) was 60%.

With `CCCc1c(C(=O)NCc2ccc(-c3ccc(OCc4nnn[nH]4)c(Br)c3)cc2)cnn1-c1ccccc1` [Compound 5, N-{[3′-bromo-4′-(H-tetraazol-5-ylmethoxy)[1,1′-biphenyl]-4-yl]methyl}-1-phenyl-5-propyl-1H-pyrazole-4-carboxamide], the “% Inhibition 25 μM” value (25 μM test compound) was 23%. In addition, the “% Inhibition 100 μM” value (100 μM test compound) turned out to be 73%.

Consider `CCCCc1oc2ccccc2c1C(=O)N(Cc1ccccc1)Cc1ccc(-c2ccc(OCc3nnn[nH]3)c(Br)c2)cc1` [Compound 11, N-benzyl-N-{[3′-bromo-4′-(1H-tetraazol-5-ylmethoxy)-1,1′-biphenyl-4-yl]methyl}-2-butyl-1-benzofuran-3-carboxamide], for which the inhibition at 25 µM (25 μM test compound) was 53%.

Regarding `Cn1cc(C(=O)N(Cc2ccccc2)Cc2ccc(-c3ccc(OCc4nnn[nH]4)c(Br)c3)cc2)c2ccccc21` [Compound 12, N-benzyl-N-{[3′-bromo-4′-(1H-tetraazol-5-ylmethoxy)-1,1′-biphenyl-4-yl]methyl}-1-methyl-1H-indole-3-carboxamide], the inhibition at 25 µM (25 μM test compound) was found to be 55%.

For the compound `CCCc1ccc(-c2ccc(C(=O)Nc3ccc(-c4ccc(OC(Cc5ccccc5)C(=O)O)cc4)cc3)cc2)cc1` (centres unmarked) [Compound 20, 3-phenyl-2-[(4′-{[(4′-propyl-1,1′-biphenyl-4-yl)carbonyl]amino}-1,1′-biphenyl-4-yl)oxy]propanoic acid], for the setting “25 μM test compound”, the inhibition at 25 µM came out at 40%. The inhibition at 100 µM (100 μM test compound) was 66%.

In the case of `O=C(Nc1ccc(-c2ccc(OC(Cc3ccccc3)C(=O)O)cc2)cc1)c1ccc(-c2ccc(Cl)cc2)o1` (centres unmarked) [Compound 21, 2-[(4′-{[5-(4-chlorophenyl)-2-furoyl]amino}-1,1′-biphenyl-4-yl)oxy]-3-phenylpropanoic acid], the inhibition at 25 µM (25 μM test compound) is 28%. For the same compound, the inhibition at 100 µM (100 μM test compound) turned out to be 52%.

For the compound `O=C(O)COc1ccc(-c2ccc(NC(=O)C3(c4ccc(Cl)cc4)CCCC3)cc2)cc1` [Compound 22, {[4′-({[1-(4-chlorophenyl)cyclopentyl]carbonyl}amino)-1,1′-biphenyl-4-yl]oxy}acetic acid], the inhibition at 25 µM (25 μM test compound) was found to be 30%. The inhibition at 100 µM (100 μM test compound) worked out at 89%.

With `O=C(O)COc1ccc(-c2ccc(NC(=O)C3(c4cccc(F)c4)CCCC3)cc2)cc1` [Compound 23, {[4′-({[1-(3-fluorophenyl)cyclopentyl]carbonyl}amino)-1,1′-biphenyl-4-yl]oxy}acetic acid], the inhibition at 25 µM (25 μM test compound) was determined as 3%. Moreover, the inhibition at 100 µM (100 μM test compound) stood at 77%.

For the compound `O=C(O)C(Cc1ccccc1)Oc1cccc(-c2ccc(NC(=O)C3(c4ccc(Cl)cc4)CCCCC3)cc2)c1` (centres unmarked) [Compound 51, 2-{[4′-({[1-(4-chlorophenyl)cyclohexyl]carbonyl}amino)-1,1′-biphenyl-3-yl]oxy}-3-phenylpropanoic acid], under “25 μM test compound”, the inhibition at 25 µM worked out at 46%. Besides, the inhibition at 100 µM (100 μM test compound) was determined as 60%.

On to `O=C(O)C(Cc1ccccc1)Oc1ccc(-c2ccc(NC(=O)C3(c4ccc(Cl)cc4)CCCC3)cc2)cc1` (centres unmarked) [Compound 52, 2-{[4′-({[1-(4-chlorophenyl)cyclopentyl]carbonyl}amino)-1,1′-biphenyl-4-yl]oxy}-3-phenylpropanoic acid], for which the inhibition at 25 µM (25 μM test compound) is 55%. For the same compound, the inhibition at 100 µM (100 μM test compound) came out at 53%.

As to `O=C(O)C(Cc1ccccc1)Oc1cccc(-c2ccc(NC(=O)C3(c4ccccc4)CC3)cc2)c1` (centres unmarked) [Compound 53, 3-phenyl-2-[(4′-{[(1-phenylcyclopropyl)carbonyl]amino}-1,1′-biphenyl-3-yl)oxy]propanoic acid], the inhibition at 25 µM (25 μM test compound) amounted to 19%. Besides, the inhibition at 100 µM (100 μM test compound) turned out to be 52%.

The record behind these values is patent publication US7534894B2, “Biphenyloxy-acids” (Wyeth, priority 2003, dated 2009).
